Measurements from PubChem BioAssay (NCI).
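GI50 is the concentration that inhibits growth by half. TGI: concentration producing complete growth inhibition.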

Assays:
Assay in all cases: NCI anticancer screen, dose series, 384-well format; in the data active = GI50 below about 0.43 µM; inactive = the rest
[1] = tested on: SNB-19 CNS
[2] = tested on: A549 NSCLC
[3] = tested on: CCRF-CEM leukemia
[4] = tested on: NCI-H226 lung
[5] = tested on: NCI/ADR-RES ovarian
[6] = tested on: MDA-MB-435 melanoma
[7] = tested on: RXF 393 renal
[8] = tested on: COLO 205 colon
[9] = tested on: ACHN renal
[10] = tested on: SK-OV-3 ovarian
[11] = tested on: MCF7 breast
[12] = tested on: MOLT-4 leukemia
[13] = tested on: UACC-257 melanoma
[14] = tested on: A498 renal
[15] = tested on: HS 578T breast
[16] = tested on: SK-MEL-2 melanoma
[17] = tested on: SW-620 colon
[18] = tested on: UACC-62 melanoma
[19] = tested on: OVCAR-8 ovarian
[20] = tested on: SF-295 CNS
[21] = tested on: M14 melanoma
[22] = tested on: DU-145 prostate
[23] = tested on: OVCAR-3 ovarian
[24] = tested on: SN12C renal
[25] = tested on: UO-31 renal
[26] = tested on: HCT-15 colon
[27] = tested on: HOP-62 NSCLC
[28] = tested on: NCI-H460 NSCLC
[29] = tested on: SF-268 CNS
[30] = tested on: OVCAR-5 ovarian
[31] = tested on: MDA-MB-231 breast
[32] = tested on: BT-549 breast
[33] = tested on: SNB-75 CNS
[34] = tested on: HL-60(TB) leukemia
[35] = tested on: NCI-H522 lung
[36] = tested on: 786-0 renal
[37] = tested on: HT29 colon
[38] = tested on: T-47D breast
[39] = tested on: K-562 leukemia
[40] = tested on: EKVX NSCLC
[41] = tested on: PC-3 prostate
[42] = tested on: SK-MEL-28 melanoma
[43] = tested on: MDA-MB-468 breast
[44] = tested on: NCI-H322M lung
[45] = tested on: SF-539 CNS
[46] = tested on: LOX IMVI melanoma
[47] = tested on: SK-MEL-5 melanoma
[48] = tested on: RPMI-8226 leukemia
[49] = tested on: HCC-2998 colon
[50] = tested on: SR leukemia
[51] = tested on: OVCAR-4 ovarian
[52] = tested on: IGROV1 ovarian
[53] = tested on: HOP-92 NSCLC
[54] = tested on: NCI-H23 lung
[55] = tested on: TK-10 renal
[56] = tested on: CAKI-1 renal
[57] = tested on: HCT-116 colon
[58] = tested on: KM12 colon
[59] = tested on: U251 glioblastoma
[60] = tested on: MALME-3M melanoma

N#Cc1ccnc(N2C(=O)CC[C@H]2C(=O)N(c2cncc(F)c2)[C@H](C(=O)NC2CC(F)(F)C2)c2ccccc2Cl)c1
inactive: GI50 [1] > 100 µM | GI50 [2] > 90.8 µM | GI50 [3] > 72.8 µM | GI50 [4] > 84.9 µM | GI50 [5] > 100 µM | GI50 [6] > 100 µM | GI50 [7] > 77.2 µM | GI50 [8] > 100 µM | GI50 [9] > 100 µM | GI50 [10] > 100 µM | GI50 [11] > 100 µM | GI50 [12] 30.3 µM | GI50 [13] > 100 µM | GI50 [14] > 100 µM | GI50 [15] > 87.8 µM | GI50 [16] > 100 µM | GI50 [17] > 100 µM | GI50 [18] > 100 µM | GI50 [19] > 100 µM | GI50 [20] > 100 µM | GI50 [21] > 100 µM | GI50 [22] > 100 µM | GI50 [23] > 96.1 µM | GI50 [24] > 100 µM | GI50 [25] > 100 µM | GI50 [26] > 100 µM | GI50 [27] > 100 µM | GI50 [28] 89.7 µM | GI50 [29] > 100 µM | GI50 [30] > 100 µM | GI50 [31] > 100 µM | GI50 [32] > 100 µM | GI50 [33] > 100 µM | GI50 [34] > 100 µM | GI50 [35] 97.9 µM | GI50 [36] > 100 µM | GI50 [37] > 95.3 µM | GI50 [38] > 100 µM | GI50 [39] 99.2 µM | GI50 [40] > 100 µM | GI50 [41] > 100 µM | GI50 [42] > 100 µM | GI50 [43] > 100 µM | GI50 [44] > 100 µM | GI50 [45] > 100 µM | GI50 [46] > 100 µM | GI50 [47] > 100 µM | GI50 [48] > 100 µM | GI50 [49] > 100 µM | GI50 [50] 31.4 µM | GI50 [51] > 86.7 µM | GI50 [52] > 100 µM | GI50 [53] 34.3 µM | GI50 [54] > 89.5 µM | GI50 [55] > 100 µM | GI50 [56] > 55.4 µM | GI50 [57] 28.6 µM | GI50 [58] > 100 µM | GI50 [59] > 100 µM | GI50 [60] > 100 µM
> 100 µM: TGI [1] | TGI [2] | TGI [3] | TGI [4] | TGI [5] | TGI [6] | TGI [7] | TGI [8] | TGI [9] | TGI [10] | TGI [11] | TGI [12] | TGI [13] | TGI [14] | TGI [15] | TGI [16] | TGI [17] | TGI [18] | TGI [19] | TGI [20] | TGI [21] | TGI [22] | TGI [23] | TGI [24] | TGI [25] | TGI [26] | TGI [27] | TGI [28] | TGI [29] | TGI [30] | TGI [31] | TGI [32] | TGI [33] | TGI [34] | TGI [35] | TGI [36] | TGI [37] | TGI [38] | TGI [39] | TGI [40] | TGI [41] | TGI [42] | TGI [43] | TGI [44] | TGI [45] | TGI [46] | TGI [47] | TGI [48] | TGI [49] | TGI [51] | TGI [52] | TGI [53] | TGI [54] | TGI [55] | TGI [57] | TGI [58] | TGI [59] | TGI [60]
> 95.8 µM: TGI [50]
> 82.9 µM: TGI [56]
